One assay has as its system CB2 receptor. The arrangement: method as in PMID 30639103, PMID 18931146. The following applies: previously reported; cited from earlier work.
Assay [1] concerns the target T1, hCB2 (Homo sapiens, UniProt P34972).
T1 construct: purchased PerkinElmer ES111-M400UA; host or cells: CHO-K1 cells stably transfected
Nature of the assay: [35S]GTPγS binding assay in hCB2-CHO-K1 cell membranes. Type of assay: biochemical. The conditions noted are these: for Emax: read-out: GTPγS binding Emax; for Functional effect on G-protein signaling (pharmacological category) / Reduced basal signaling: hCB2-expressing CHO cell membranes (PerkinElmer). The method, then: Figure 2 Affinity and functional effects of novel MRI ligands on CB2 receptor in CHO cell membranes. (a) binding affinities (nM) and Emax (% and nM) of [^35S]-GTPγS binding to CHO membranes (PerkinElmer, Cat. No ES111-M400UA) expressing hCB2. (b) [^35S]-GTPγS binding to membranes as a factor of ligand concentration. Binding of [^35S]-GTPγS was determined as described in “Methods”. Non-specific binding was defined as 0% activity. The assay of GTPγS non-specific binding contains non-radioactive GTPγS.
[^35S] GTPγS binding was assayed as described earlier[65] with slight modifications. Briefly, hCB2-CHO-K1 cell membranes (4 µg) were incubated with 0.05 nM [^35S] GTPγS, and the indicated concentrations of ligands in TEM buffer (50 mM Tris–HCl, 0.2 mM EGTA, and 9 mM MgCl2, pH 7.4) containing 100 µM GDP, 150 mM NaCl, and 0.1% (w/v) bovine serum albumin in a total volume of 1 ml for 60 min at 30 °C.
On the technique in general: GTPγS is a poorly hydrolysed GTP analogue; its binding reports G protein activation.

The target in assay [2] is T1, hCB2. The assay is described as follows: Radioligand ([3H]CP-55,940) displacement binding in hCB2-CHO-K1 cell membranes. The following applies: hCB2-expressing CHO cell membranes (PerkinElmer), [3H]CP-55,940 displacement; read-out: CB2R binding hCB2R-Ki. The method, then: The assay was performed as described previously. […] Plasma membranes were from cultured CHO-K1 cells stably transfected with human CB2R (Perkin Elmer). Two microgram plasma membrane protein was used in a 1 mL reaction mixture. Ki values were derived by computerized curve fitting and using the Cheng-Prusoff equation to account for the affinity of the radioligand, using the GraphPad Prism 8 program (GraphPad Prism Software Inc.).

The target of another assay is cannabinoid receptor CB2 (Homo sapiens, UniProt P34972). Nature of the assay: [35S]GTP nucleotide exchange (GEF) G protein activation assay on CB2 in cell membrane preparations. Type of assay: biochemical. The arrangement: purchased PerkinElmer; Millipore ChemiScreen; Applied Cell Sciences; Signal Screen (Sf9); E. coli BL21 (DE3) and Expi293F membranes were made in house; ES111-M400UA; A318; 6110130; host or cells: CHO, CHO-K1, Sf9, Expi293F, Expi293F GNTI-, E. coli BL21 (DE3). The following applies: for Pharmacological category in GEF assay: ligand 2 μM. From the text: To better understand the reason for these discrepancies, we assessed the activation of CB2 receptor by the in vitro G protein activation assay that measures the rates of nucleotide exchange on the Gα subunit of G protein (GEF assay) as described previously[33],[34]. The assay reports the rates of formation of the complex of [^35S]-GTPγS, a homolog of GTP, with the Gα subunit of G protein. Typical assay conditions require small (nanogram) quantities of the receptor protein either in cell membranes or reconstituted into lipid bilayers. The readout of the assay is the amount of the non-hydrolysable complex of Gα with [^35S]-GTPγS which, under selected experimental conditions, is proportional to the amount of activated receptor in the assay.
Figure 3 GEF of CB2 expressed in: (a) E. coli membranes and (b) CHO membranes (Millipore EMD). 2 μg of total protein per assay. Each point represents an average of four independent measurements (n = 4). Ligands were added at a concentration of 2 μM to ensure saturation of the receptor, and G protein was added as described in “Methods”. The dotted line indicates the rates of activation of G protein in the absence of a ligand. The rates of activation with […] are set to 100%, and rates of activation in the presence of SR-144,528 to 0%.
Figure 4 GEF on CB2 expressed in different cell lines. An amount of 2 μg of membrane protein per assay was used. Each data points represents an average of four independent measurements (n = 4) with error rates indicated by the bars. 100% represents full activation in the presence of 2 μM of CP-55,940, and 0%–with 2 μM SR-144,528.
The subunits of G protein were expressed and purified as described previously. The nucleotide exchange assay was performed as previously described.

The test system of another assay is microglia. Further details: method as in PMID 16343349. The following applies: cited from earlier work.
A further assay relates to natural killer cells. The arrangement: method as in PMID 15749836. The following applies: cited from earlier work.
[3] abbreviates: CB2 in CHO membranes (EMD Millipore).
The mark [4] stands for this setting: CB2 in E. coli BL21 (DE3) membranes (untreated).

“Also recorded” adds a separate entry of the source.

T1 sequence (P34972 whole entry): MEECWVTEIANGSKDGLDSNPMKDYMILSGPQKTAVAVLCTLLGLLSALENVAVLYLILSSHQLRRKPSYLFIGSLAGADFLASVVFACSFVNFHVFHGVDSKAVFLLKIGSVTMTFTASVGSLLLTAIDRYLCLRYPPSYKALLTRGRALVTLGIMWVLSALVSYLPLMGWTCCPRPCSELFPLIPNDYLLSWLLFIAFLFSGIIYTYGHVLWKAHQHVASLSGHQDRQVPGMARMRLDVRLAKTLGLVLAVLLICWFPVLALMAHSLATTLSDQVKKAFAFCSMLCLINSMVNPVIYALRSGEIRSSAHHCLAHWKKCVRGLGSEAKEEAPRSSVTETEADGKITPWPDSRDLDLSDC
Sequence of cannabinoid receptor CB2 (P34972 whole entry): as above

With `COCCn1c(C)c(C)s/c1=N\C(=O)C1C(C)(C)C1(C)C` [A-836339, 2,2,3,3-tetramethyl-cyclopropanecarboxylic acid [3-(2-methoxy-ethyl)-4,5-dimethyl-3H-thiazol-(2Z)-ylidene]-amide, reference compound], the “Activity on the CB2 receptor (category)” value in the assay on CB2 receptor is listed as “agonist”.

For `CCCCCCC(C)(C)c1ccc([C@@H]2C[C@H](O)CC[C@H]2CCCO)c(O)c1` [CP55,940, 2-[(1R,2R,5R)-5-Hydroxy-2-(3-hydroxypropyl)cyclohexyl]-5-(2-methyloctan-2-yl)phenol, reference compound], the Emax (usually the greatest response seen or fitted, relative to the assay's reference) at hCB2 [1] stood at 275 ± 4%.

Take `CC(=O)OCCn1c(C)c(C)s/c1=N\C(=O)C1C(C)(C)C1(C)C` [MRI-2594]: the “Activity on the CB2 receptor (category)” value with CB2 receptor is “agonist”. Besides, on hCB2 [2], the Ki – broadly, a measure of affinity in units of concentration, obtained from inhibition or displacement – amounted to 0.031 nM. The “Pharmacological category in GEF assay” value on cannabinoid receptor CB2 (setting [3]) is “(less-strong) agonist”. Also, at cannabinoid receptor CB2 (setting [4]), the “Pharmacological category in GEF assay” value is listed as “full agonist; also recorded: strong agonist”. Moreover, on hCB2 [1], the EC50 (as a rule, the concentration at which the effect is half-maximal) was 0.09 nM; the “Functional effect on G-protein signaling (pharmacological category)” value (from here on “Functional effect … (pharmacological category)”) was “full agonism”; the Emax was determined as 276 ± 4%.

For `COc1ccc2c(c1)sc(=NC(=O)C1C(C)(C)C1(C)C)n2CCOC(C)=O` [MRI-2653, 2-(6-Methoxy-2-((2,2,3,3-tetramethylcyclopropane-1-carbonyl)imino)benzo[d]thiazol-3(2H)-yl)ethyl acetate], the Ki on hCB2 [2] was 0.094 ± 0.011 nM. At hCB2 [1], the EC50 worked out at 0.5 ± 0.09 nM, the “Functional effect … (pharmacological category)” value is given as “inverse agonism”, the Reduced basal signaling is 55% and the Emax was -46 ± 2%.

As for `CC(=O)OCCn1c(=NC(=O)C2C(C)(C)C2(C)C)sc2cc(Br)ccc21` [MRI-2654, 2-(6-Bromo-2-((2,2,3,3-tetramethylcyclopropane-1-carbonyl)imino)benzo[d]thiazol-3(2H)-yl)ethyl acetate], on hCB2 [2], the Ki was 0.079 ± 0.009 nM. Further, at hCB2 [1], a half-maximal response (EC50) required 0.76 ± 0.04 nM, the “Functional effect … (pharmacological category)” value is given as “inverse agonism; also recorded: inverse agonist”, the Reduced basal signaling was found to be 55% and the Emax was -23 ± 3%.

For the compound `CC(=O)OCCn1c(=NC(=O)C2C(C)(C)C2(C)C)sc2cc(OC(F)(F)F)ccc21` [MRI-2659, 2-(2-((2,2,3,3-tetramethylcyclopropane-1-carbonyl)imino)-6-(trifluoromethoxy)benzo[d]thiazol-3(2H)-yl)ethyl acetate], the Ki on hCB2 [2] worked out at 0.053 ± 0.01 nM. Further, on cannabinoid receptor CB2 (setting [3]), the “Pharmacological category in GEF assay” value was “strong inverse agonist”. At cannabinoid receptor CB2 (setting [4]), the “Pharmacological category in GEF assay” value is “strong inverse agonist”. At hCB2 [1], a half-maximal response (EC50) required 0.25 ± 0.1 nM, the “Functional effect … (pharmacological category)” value is “inverse agonism”, the Reduced basal signaling is 55% and the Emax is -55 ± 1%.

Take `CC(=O)OCCn1c(=NC(=O)C2C(C)(C)C2(C)C)sc2cc(C)ccc21` [MRI-2687, 2-(6-methyl-2-((2,2,3,3-tetramethylcyclopropane-1-carbonyl)imino)benzo[d]thiazol-3(2H)-yl)ethyl acetate]: the “Activity on the CB2 receptor (category)” value with CB2 receptor is listed as “inverse agonist”. In addition, the Ki at hCB2 [2] came out at 0.1 ± 0.01 nM. On hCB2 [1], it took 1.23 ± 0.09 nM to reach a half-maximal effect (EC50), the “Functional effect … (pharmacological category)” value was “inverse agonism”, the Reduced basal signaling is 55% and the Emax was -35 ± 1%.

As for `CCCCCc1cc(O)c2c(c1)OC(C)(C)[C@@H]1CCC(C)=C[C@@H]21` [THC, Δ^9-tetrahydrocannabinol], in the assay with microglia, the “CB2 activity in suppressing interferon-γ-induced activation of microglia” value was “full CB2 agonist”. For the same compound, the “CB2 activity on 2-AG-induced migration of natural killer cells” value in the assay with natural killer cells was “no CB2 agonist activity and acted as a CB2 antagonist”.

As to `CC(C)CCC[C@@H](C)[C@H]1CC[C@H]2[C@@H]3CC=C4C[C@@H](O)CC[C@]4(C)[C@H]3CC[C@]12C` [cholesterol], the “Effect on constitutive (basal) activity of the CB2 receptor” value at cannabinoid receptor CB2 (cell membrane preparations and liposomes) is recorded as “increases”.

In the case of “methyl-β-cyclodextrin [MβCD, reference compound]”, the “Effect on rates of activation of G protein on CB2” value at cannabinoid receptor CB2 (Expi293F membranes treated with 20 mM MβCD) is on record as “decreased by about twofold”.
